# Test results taken from patent publication US20140045824A1, “METHOD FOR PRODUCING COMPLEX CRYSTAL AND METHOD FOR SCREENING COMPLEX CRYSTAL” (priority 2011, published 2014).
# Key:
# Format in all cases: physicochemical
# [1] = Cocrystal screening by co-grinding method (Comparative Example 2); parameters: key: A cocrystal was completely formed.; B: A mixture of a cocrystal and the host compound or guest compound was formed.; C: A cocrystal was not formed (a mixture of the host compound and the guest compound was formed); settings: host theophylline, equimolar guest, mixed/ground in agate mortar
# Description: 3 mg (0.0167 mmoles) of theophylline and a guest compound shown in Table 1 in an equimolar amount (0.0167 mmoles) to theophylline were weighed and mixed using an agate mortar. At that time, particles having a large size to an extent that they could be distinguished through visual inspection were grinded on the agate mortar. The obtained solids were subjected to powder X-ray diffraction measurement and thermal analysis.
# [2] = Cocrystal screening by slurry method (Comparative Examples 4-1 to 4-6), powder X-ray diffraction; parameters: key: A cocrystal was completely formed.; B: A mixture of a cocrystal and the host compound or guest compound was formed.; C: A cocrystal was not formed (a mixture of the host compound and the guest compound was formed); settings: host carbamazepine; for Cocrystal formation, Comparative Example 4-6: slurry in acetone; for Cocrystal formation, Comparative Example 4-6 / Cocrystal formation, Comparative Example 4-2 / Cocrystal formation, Comparative Example 4-5 / Cocrystal formation, Comparative Example 4-3 / Cocrystal formation, Comparative Example 4-4 / Cocrystal formation, Comparative Example 4-1: room temperature 7 days; for Cocrystal formation, Comparative Example 4-2: slurry in ethanol; for Cocrystal formation, Comparative Example 4-5: slurry in ethyl acetate; for Cocrystal formation, Comparative Example 4-3: slurry in tetrahydrofuran; for Cocrystal formation, Comparative Example 4-4: slurry in toluene; for Cocrystal formation, Comparative Example 4-1: slurry in water; for Cocrystal formation, Comparative Example 4*: slurry summary: A if a cocrystal was formed in any one of Comparative Examples 4-1 to 4-6
# Description: 3 mg (0.0127 mmoles) of carbamazepine and a guest compound shown in Table 4 in an equimolar amount (0.0127 mmoles) to carbamazepine were weighed and put into a glass container, to which was then added 60 μL of water. These were shaken at room temperature for 7 days, and the obtained residues were subjected to powder X-ray diffraction measurement. 3 mg (0.0127 mmoles) of carbamazepine and a guest compound shown in Table 4 in an equimolar amount (0.0127 mmoles) to carbamazepine were weighed and put into a glass container, to which was then added 60 μL of ethanol. These were shaken at room temperature for 7 days, and the obtained residues were subjected to powder X-ray diffraction measurement. 3 mg (0.0127 mmoles) of carbamazepine and a guest compound shown in Table 4 in an equimolar amount (0.0127 mmoles) to carbamazepine were weighed and put into a glass container, to which was then added 60 μL of tetrahydrofuran. These were shaken at room temperature for 7 days, and the obtained residues were subjected to powder X-ray diffraction measurement. 3 mg (0.0127 mmoles) of carbamazepine and a guest compound shown in Table 4 in an equimolar amount (0.0127 mmoles) to carbamazepine were weighed and put into a glass container, to which was then added 60 μL of toluene. These were shaken at room temperature for 7 days, and the obtained residues were subjected to powder X-ray diffraction measurement. 3 mg (0.0127 mmoles) of carbamazepine and a guest compound shown in Table 4 in an equimolar amount (0.0127 mmoles) to carbamazepine were weighed and put into a glass container, to which was then added 60 μL of ethyl acetate. These were shaken at room temperature for 7 days, and the obtained residues were subjected to powder X-ray diffraction measurement. 3 mg (0.0127 mmoles) of carbamazepine and a guest compound shown in Table 4 in an equimolar amount (0.0127 mmoles) to carbamazepine were weighed and put into a glass container, to which was then added 60 μL of acetone. These were shaken at room temperature for 7 days, and the obtained residues were subjected to powder X-ray diffraction measurement.
# [3] = Cocrystal screening by heat melting 1-menthol (Example 1), powder X-ray diffraction and thermal analysis; parameters: key to Cocrystal formation, Example 1: A cocrystal was completely formed.; B: A mixture of a cocrystal and the host compound or guest compound was formed.; C: A cocrystal was not formed (a mixture of the host compound and the guest compound was formed); settings: host theophylline; for Cocrystal formation, Example 1: equimolar guest, 1-menthol added, 4 hours at 80° C.
# Description: Theophylline and a guest compound shown in Table 1 in an equimolar amount to theophylline were weighed and mixed using an agate mortar. […] Thereafter, the obtained mixed powder of theophylline, the guest compound, and 1-menthol was heated for 4 hours in an oven at 80° C., and the obtained solid was subjected to powder X-ray diffraction measurement and thermal analysis.
# [4] = Cocrystal screening by heating method without menthol (Comparative Example 3); parameters: key: A cocrystal was completely formed.; B: A mixture of a cocrystal and the host compound or guest compound was formed.; C: A cocrystal was not formed (a mixture of the host compound and the guest compound was formed); settings: host theophylline, equimolar guest, no menthol, 4 hours at 80° C.
# Description: 3 mg (0.0167 mmoles) of theophylline and a guest compound shown in Table 1 in an equimolar amount (0.0167 mmoles) to theophylline were weighed and mixed using an agate mortar. At that time, particles having a large size to an extent that they could be distinguished through visual inspection were grinded on the agate mortar. 10 mg of this mixed powder was weighed and put into a test tube, followed by heating for 4 hours in an oven at 80° C. The obtained solid was subjected to powder X-ray diffraction measurement and thermal analysis.
# [5] = Cocrystal screening by heat melting 1-menthol (Example 2), powder X-ray diffraction and thermal analysis; parameters: key: A cocrystal was completely formed.; B: A mixture of a cocrystal and the host compound or guest compound was formed.; C: A cocrystal was not formed (a mixture of the host compound and the guest compound was formed); settings: host carbamazepine, equimolar guest, 1-menthol added, 10 hours at 80° C.
# Description: Carbamazepine and a guest compound shown in Table 4 in an equimolar amount to carbamazepine were weighed and mixed using an agate mortar. […] Thereafter, the obtained mixed powder of carbamazepine, the guest compound, and 1-menthol was heated for 10 hours in an oven at 80° C., and the obtained solids were subjected to powder X-ray diffraction measurement and thermal analysis.
# [6] = Cocrystal screening by mixing and grinding method (Comparative Example 5); parameters: key: A cocrystal was completely formed.; B: A mixture of a cocrystal and the host compound or guest compound was formed.; C: A cocrystal was not formed (a mixture of the host compound and the guest compound was formed); settings: host carbamazepine, equimolar guest, mixed/ground in agate mortar
# Source text: Carbamazepine and a guest compound shown in Table 4 in an equimolar amount to carbamazepine were weighed and mixed using an agate mortar. At that time, particles having a large size to an extent that they could be distinguished through visual inspection were grinded on the agate mortar. The obtained solids were subjected to powder X-ray diffraction measurement and thermal analysis.
compound,measurement,setting,value
O=S(=O)(O)CCS(=O)(=O)O [Ethanedisulfonic acid],"Cocrystal formation, Comparative Example 2",[1],A
same,"Cocrystal formation, Comparative Example 4-6",[2],A
same,"Cocrystal formation, Comparative Example 4-2",[2],A
same,"Cocrystal formation, Comparative Example 4-5",[2],A
same,"Cocrystal formation, Comparative Example 4-3",[2],A
same,"Cocrystal formation, Comparative Example 4-4",[2],A
same,"Cocrystal formation, Comparative Example 4-1",[2],C
same,"Cocrystal formation, Comparative Example 4*",[2],A
same,"Cocrystal formation, Example 1",[3],A
same,"Cocrystal formation, Comparative Example 3",[4],A
same,"Cocrystal formation, Example 2",[5],A
same,"Cocrystal formation, Comparative Example 5",[6],C
O=C(O)CC(O)(CC(=O)O)C(=O)O [Citric acid],"Cocrystal formation, Comparative Example 2",[1],C
same,"Cocrystal formation, Comparative Example 4-6",[2],C
same,"Cocrystal formation, Comparative Example 4-2",[2],C
same,"Cocrystal formation, Comparative Example 4-4",[2],C
same,"Cocrystal formation, Comparative Example 4-1",[2],C
same,"Cocrystal formation, Comparative Example 4*",[2],C
same,"Cocrystal formation, Example 1",[3],A
same,"Cocrystal formation, Comparative Example 3",[4],B
same,"Cocrystal formation, Example 2",[5],B
same,"Cocrystal formation, Comparative Example 5",[6],C
N=C(N)NCCC[C@H](N)C(=O)O [L(+)-Arginine],"Cocrystal formation, Comparative Example 2",[1],C
same,"Cocrystal formation, Comparative Example 4-6",[2],C
same,"Cocrystal formation, Comparative Example 4-2",[2],C
same,"Cocrystal formation, Comparative Example 4-5",[2],C
same,"Cocrystal formation, Comparative Example 4-4",[2],C
same,"Cocrystal formation, Comparative Example 4-1",[2],C
same,"Cocrystal formation, Comparative Example 4*",[2],C
same,"Cocrystal with theophylline found, Example 1","[3]; 1-menthol, 80° C.",could not be found out
same,"Cocrystal formation, Example 1",[3],C
same,"Cocrystal formation, Comparative Example 3",[4],C
same,"Cocrystal formation, Example 2",[5],C
same,"Cocrystal formation, Comparative Example 5",[6],C
CC(C)C[C@H](N)C(=O)O [L-Leucine],"Cocrystal formation, Comparative Example 2",[1],C
same,"Cocrystal formation, Comparative Example 4-6",[2],C
same,"Cocrystal formation, Comparative Example 4-2",[2],C
same,"Cocrystal formation, Comparative Example 4-5",[2],C
same,"Cocrystal formation, Comparative Example 4-4",[2],C
same,"Cocrystal formation, Comparative Example 4-1",[2],C
same,"Cocrystal formation, Comparative Example 4*",[2],C
same,"Cocrystal formation, Example 1",[3],C
same,"Cocrystal formation, Comparative Example 3",[4],C
same,"Cocrystal formation, Example 2",[5],C
same,"Cocrystal formation, Comparative Example 5",[6],C
O=C(O)CCCC(=O)O [Glutaric acid],"Cocrystal formation, Comparative Example 2",[1],C
same,"Cocrystal formation, Comparative Example 4-6",[2],C
same,"Cocrystal formation, Comparative Example 4-2",[2],C
same,"Cocrystal formation, Comparative Example 4-5",[2],C
same,"Cocrystal formation, Comparative Example 4-4",[2],C
same,"Cocrystal formation, Comparative Example 4-1",[2],C
same,"Cocrystal formation, Comparative Example 4*",[2],C
same,"Cocrystal formation, Example 1",[3],A
same,"Cocrystal formation, Comparative Example 3",[4],B
same,"Cocrystal formation, Example 2",[5],A
same,"Cocrystal formation, Comparative Example 5",[6],C
NC(=O)c1ccccc1 [Benzamide],"Cocrystal formation, Comparative Example 2",[1],C
same,"Cocrystal formation, Comparative Example 4-6",[2],C
same,"Cocrystal formation, Comparative Example 4-2",[2],A
same,"Cocrystal formation, Comparative Example 4-5",[2],A
same,"Cocrystal formation, Comparative Example 4-3",[2],A
same,"Cocrystal formation, Comparative Example 4-4",[2],A
same,"Cocrystal formation, Comparative Example 4-1",[2],B
same,"Cocrystal formation, Comparative Example 4*",[2],A
same,"Cocrystal formation, Example 1",[3],A
same,"Cocrystal formation, Comparative Example 3",[4],C
same,"Cocrystal formation, Example 2",[5],A
same,"Cocrystal formation, Comparative Example 5",[6],C
O=C(O)c1ccccc1 [Benzoic acid],"Cocrystal formation, Comparative Example 2",[1],C
same,"Cocrystal formation, Comparative Example 4-6",[2],C
same,"Cocrystal formation, Comparative Example 4-2",[2],C
same,"Cocrystal formation, Comparative Example 4-5",[2],C
same,"Cocrystal formation, Comparative Example 4-4",[2],C
same,"Cocrystal formation, Comparative Example 4-1",[2],C
same,"Cocrystal formation, Comparative Example 4*",[2],C
same,"Cocrystal formation, Example 1",[3],A
same,"Cocrystal formation, Comparative Example 3",[4],B
same,"Cocrystal formation, Example 2",[5],A
same,"Cocrystal formation, Comparative Example 5",[6],C
